Laboratory results: PubChem BioAssay AID2060327 (Molecular Pharmacology Branch, DTP, NCI, 2025)
Where “and” joins values, the source holds several entries; their conditions need not be identical. Equal entries are not always repeated.

Test system: PC-3 multi-cell spheroids, viability
Experiment: Anticancer human tumor PC-3 cell line growth inhibition [IpAb];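 further: spheroids exposed to compounds for 7 days before readout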;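 on viability, T/C: 100% = DMSO vehicle control wells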
Details: for viability, T/C: stronger effect = lower value
From the text: Combinatorial screen of targeted agents with ipatasertib and abemaciclib in multi-cell type tumor spheroids
A high-throughput screen of multi-cell type tumor spheroids was designed to identify active combinations of targeted small molecules and ipatasertib or abemaciclib. Complex spheroids include a stromal component modeled by human endothelial cells (HUVEC) and fibroblasts modeled by human mesenchymal stem cells (MSCs). The concentration ranges selected for each drug and investigational agent were based upon clinically achievable concentrations if the clinical Cmax of the agent was known.
Compounds. The drugs and investigational agents: ipatasertib (NSC767898), abemaciclib(NSC768073), selumetinib (NSC741078), trametinib (758246), adavosertib (NSC754352), everolimus (NSC733504), sapanisertib (NSC764658), vemurafenib (NSC761431), venetoclax (NSC766270), copanlisib (NSC809693), apelisib (NSC765974), palbociblib (NSC758247), vemurafenib (NSC761431), dabrafenib (NSC764134), ravoxertinib (NSC781343), BMS-387032 (NSC767048), sotorasib (NSC818433), talazoparib (NSC767125) and afursertib (NSC778305), were obtained from the National Cancer Institute (NCI) Developmental Therapeutics Program Chemical Repository. The FDA-approved anticancer drug set is available from the NCI Developmental Therapeutics Program. […] The stock solutions were prepared in dimethyl sulfoxide (DMSO, Sigma-Aldrich, St. Louis, MO, cat. D2650) at 800-fold the tested concentration and stored at -70 degrees C prior to their use. All drugs and investigational agents were tested over a range starting from a high concentration at or near the clinical Cmax and decreasing in half-log increments. If the clinical Cmax for an agent had not been determined, the highest concentration tested was 10 microM.
NCI60 Cell Culture. NCI60 cell lines were obtained from the NCI Developmental Therapeutics Program Tumor Repository. For each lot of cells, the Repository performed Applied Biosystems AmpFLSTR Identifiler testing with PCR amplification to confirm consistency with the published Identifier STR profile for each cell line. Cells were kept in continuous culture for no more than 20 passages. The optimal seeding densities for each of the cell lines at each time point assessed were determined prior to performing the concentration response studies. Briefly, the NCI60 human tumor lines were grown as monolayers in RPMI 1640 medium supplemented with 10% FBS and 2 mmol/L L-glutamine.
An additional 9 lines were from the NCI60 cell line panel including MDA-MB-231 breast carcinoma, MDA-MB-468 breast carcinoma, MCF7 breast carcinoma, Hs578T breast carcinoma, MALME-3M melanoma, SK-MEL-2 melanoma, SK-OV-3 ovarian carcinoma, DU-145 prostate carcinoma, PC-3 prostate carcinoma, all cell lines along with major genetic alterations are listed on Table 2. Pooled donor human umbilical vein endothelial cells (HUVEC, Lonza, cat. CC-2519) and human mesenchymal stem cells (hMSC, Lonza, cat. PT-2501) were purchased from Lonza (Walkersville, MD).
PDMR cell lines were grown in complete medium (DC medium): Dulbecco's modified Eagle's medium (DMEM)/F12 supplemented with 5% fetal bovine serum (FBS), 2 mM L-glutamine, 100 U/mL penicillin and 100 µg/ml streptomycin, 0.4 µg/ml hydrocortisone, 10 ng/ml epidermal growth factor (EGF) recombinant human protein, 24 µg/mL adenine, and 0.1 mg/mL primocin. During culture from frozen stock vials, PDMR cells were cultured in the same medium containing 10 µM Y-27632 (see Table 3). The PDCs were cultured in complete DMEM/F12 media without 10 microM Y-27632 dihydrochloride for at least two passages prior to the screen. The pooled donor HUVEC and hMSC were cultured in endothelial cell growth medium 2 (PromoCell, Heidelberg, Germany, cat. C-22011) and mesenchymal stem cell growth medium 2 (PromoCell, cat. C-28009), respectively. For all experiments, HUVEC and hMSC were used at passages </=5.
[…]

[1] = curve of first compound, second compound 0.1 µM
[2] = curve of first compound, second compound 0.316 µM
[3] = curve of first compound, second compound 1 µM
[4] = curve of first compound, second compound 3.16 µM
[5] = curve of first compound, second compound 10 µM
[6] = second compound 0.1 µM, first compound 0.00316 µM
[7] = second compound 0.1 µM, first compound 0.01 µM
[8] = second compound 0.1 µM, first compound 0.0316 µM
[9] = second compound 0.1 µM, first compound 0.1 µM
[10] = second compound 0.316 µM, first compound 0.00316 µM
[11] = second compound 0.316 µM, first compound 0.01 µM
[12] = second compound 0.316 µM, first compound 0.0316 µM
[13] = second compound 0.316 µM, first compound 0.1 µM
[14] = second compound 1 µM, first compound 0.00316 µM
[15] = second compound 1 µM, first compound 0.01 µM
[16] = second compound 1 µM, first compound 0.0316 µM
[17] = second compound 1 µM, first compound 0.1 µM
[18] = second compound 3.16 µM, first compound 0.00316 µM
[19] = second compound 3.16 µM, first compound 0.01 µM
[20] = second compound 3.16 µM, first compound 0.0316 µM
[21] = second compound 3.16 µM, first compound 0.1 µM
[22] = second compound 10 µM, first compound 0.00316 µM
[23] = second compound 10 µM, first compound 0.01 µM
[24] = second compound 10 µM, first compound 0.0316 µM
[25] = second compound 10 µM, first compound 0.1 µM
[26] = second compound 0.1 µM, first compound 0.316 µM
[27] = second compound 0.1 µM, first compound 1 µM
[28] = second compound 0.316 µM, first compound 0.316 µM
[29] = second compound 0.316 µM, first compound 1 µM
[30] = second compound 1 µM, first compound 0.316 µM
[31] = second compound 1 µM, first compound 1 µM

## CC(C)(C)c1cnc(CSc2cnc(NC(=O)C3CCNCC3)s2)o1
Compound 0.00949 µM
  viability, T/C: 100% and 112%
Compound 0.03 µM
  viability, T/C: 119% and 114%
Compound 0.0949 µM
  viability, T/C: 108% and 120%
Compound 0.3 µM
  viability, T/C: 16.7% and 4.98%
Compound 0.949 µM
  viability, T/C: 6.38% and 6.26%
Compound 3 µM
  viability, T/C: 6.95% and 7.36%
Curve of compound
  IC50: 197 nM and 189 nM

## Cn1ncnc1[C@H]1c2n[nH]c(=O)c3cc(F)cc(c23)N[C@@H]1c1ccc(F)cc1 + CC(C)NCC(C(=O)N1CCN(c2ncnc3c2C(C)CC3O)CC1)c1ccc(Cl)cc1
[1]
  IC50: 13.3 nM
[2]
  IC50: < 0.316 nM
[3]
  IC50: < 0.316 nM
[4]
  IC50: < 0.316 nM
[5]
  IC50: < 0.316 nM
Second compound 0.1 µM, first compound 0.000316 µM
  viability, T/C: 78.5%
Second compound 0.1 µM, first compound 0.001 µM
  viability, T/C: 71.4%
[6]
  viability, T/C: 52.4%
[7]
  viability, T/C: 51.8%
[8]
  viability, T/C: 51.6%
[9]
  viability, T/C: 40.1%
Second compound 0.316 µM, first compound 0.000316 µM
  viability, T/C: 47.1%
Second compound 0.316 µM, first compound 0.001 µM
  viability, T/C: 43.8%
[10]
  viability, T/C: 42.9%
[11]
  viability, T/C: 40.3%
[12]
  viability, T/C: 37.9%
[13]
  viability, T/C: 32.8%
Second compound 1 µM, first compound 0.000316 µM
  viability, T/C: 25.3%
Second compound 1 µM, first compound 0.001 µM
  viability, T/C: 23.3%
[14]
  viability, T/C: 25.2%
[15]
  viability, T/C: 18.4%
[16]
  viability, T/C: 19.9%
[17]
  viability, T/C: 18.7%
Second compound 3.16 µM, first compound 0.000316 µM
  viability, T/C: 14.2%
Second compound 3.16 µM, first compound 0.001 µM
  viability, T/C: 14.1%
[18]
  viability, T/C: 14.7%
[19]
  viability, T/C: 13.1%
[20]
  viability, T/C: 13.2%
[21]
  viability, T/C: 13.8%
Second compound 10 µM, first compound 0.000316 µM
  viability, T/C: 14.8%
Second compound 10 µM, first compound 0.001 µM
  viability, T/C: 14%
[22]
  viability, T/C: 13.3%
[23]
  viability, T/C: 11%
[24]
  viability, T/C: 11.6%
[25]
  viability, T/C: 11.3%

## CCCS(=O)(=O)Nc1ccc(F)c(C(=O)c2c[nH]c3ncc(-c4ccc(Cl)cc4)cc23)c1F + CCN1CCN(Cc2ccc(Nc3ncc(F)c(-c4cc(F)c5nc(C)n(C(C)C)c5c4)n3)nc2)CC1
Curve of first compound, second compound 0.01 µM
  IC50: 9020 nM
Curve of first compound, second compound 0.0316 µM
  IC50: 6600 nM
[1]
  IC50: 8630 nM
[2]
  IC50: 4290 nM
[3]
  IC50: 3410 nM
Second compound 0.01 µM, first compound 0.0316 µM
  viability, T/C: 92.5%
Second compound 0.01 µM, first compound 0.1 µM
  viability, T/C: 96.8%
Second compound 0.01 µM, first compound 0.316 µM
  viability, T/C: 104%
Second compound 0.01 µM, first compound 1 µM
  viability, T/C: 99.5%
Second compound 0.01 µM, first compound 3.16 µM
  viability, T/C: 76.3%
Second compound 0.01 µM, first compound 10 µM
  viability, T/C: 47.4%
Second compound 0.0316 µM, first compound 0.0316 µM
  viability, T/C: 65%
Second compound 0.0316 µM, first compound 0.1 µM
  viability, T/C: 79.1%
Second compound 0.0316 µM, first compound 0.316 µM
  viability, T/C: 71.7%
Second compound 0.0316 µM, first compound 1 µM
  viability, T/C: 77.8%
Second compound 0.0316 µM, first compound 3.16 µM
  viability, T/C: 69.3%
Second compound 0.0316 µM, first compound 10 µM
  viability, T/C: 38.8%
[8]
  viability, T/C: 57.3%
[9]
  viability, T/C: 57.4%
[26]
  viability, T/C: 68.6%
[27]
  viability, T/C: 64.1%
Second compound 0.1 µM, first compound 3.16 µM
  viability, T/C: 61.9%
Second compound 0.1 µM, first compound 10 µM
  viability, T/C: 34.9%
[12]
  viability, T/C: 64.7%
[13]
  viability, T/C: 64%
[28]
  viability, T/C: 68%
[29]
  viability, T/C: 62.4%
Second compound 0.316 µM, first compound 3.16 µM
  viability, T/C: 57.2%
Second compound 0.316 µM, first compound 10 µM
  viability, T/C: 30.6%
[16]
  viability, T/C: 61.5%
[17]
  viability, T/C: 58.5%
[30]
  viability, T/C: 65.3%
[31]
  viability, T/C: 54.6%
Second compound 1 µM, first compound 3.16 µM
  viability, T/C: 52.6%
Second compound 1 µM, first compound 10 µM
  viability, T/C: 30.6%

## COc1c(OCCCN2CCOCC2)ccc2c3n(c(=NC(=O)c4cnc(N)nc4)nc12)CCN3 + CC(C)NCC(C(=O)N1CCN(c2ncnc3c2C(C)CC3O)CC1)c1ccc(Cl)cc1
[1]
  IC50: 21.4 nM
[2]
  IC50: < 3.16 nM
[3]
  IC50: < 3.16 nM
[4]
  IC50: < 3.16 nM
[5]
  IC50: < 3.16 nM
[6]
  viability, T/C: 81.5%
[7]
  viability, T/C: 59.7%
[8]
  viability, T/C: 48.1%
[9]
  viability, T/C: 18%
[26]
  viability, T/C: 6.89%
[27]
  viability, T/C: 4.7%
[10]
  viability, T/C: 45.1%
[11]
  viability, T/C: 40%
[12]
  viability, T/C: 29.5%
[13]
  viability, T/C: 12.2%
[28]
  viability, T/C: 5.71%
[29]
  viability, T/C: 4.51%
[14]
  viability, T/C: 24.3%
[15]
  viability, T/C: 18.7%
[16]
  viability, T/C: 14%
[17]
  viability, T/C: 8.53%
[30]
  viability, T/C: 5.57%
[31]
  viability, T/C: 4.27%
[18]
  viability, T/C: 15.1%
[19]
  viability, T/C: 12.5%
[20]
  viability, T/C: 11.1%
[21]
  viability, T/C: 7.88%
Second compound 3.16 µM, first compound 0.316 µM
  viability, T/C: 4.58%
Second compound 3.16 µM, first compound 1 µM
  viability, T/C: 3.91%
[22]
  viability, T/C: 12.8%
[23]
  viability, T/C: 11.5%
[24]
  viability, T/C: 10.3%
[25]
  viability, T/C: 6.13%
Second compound 10 µM, first compound 0.316 µM
  viability, T/C: 4.33%
Second compound 10 µM, first compound 1 µM
  viability, T/C: 4.03%
